The term MIC denotes the lowest concentration found to suppress growth.

The values below come from patent publication US6562844B2, “Oxazolidinone combinatorial libraries, compositions and methods of preparation” (Pharmacia & Upjohn Company, priority 1998, dated 2003).

In brackets after ≈: the same amount, converted by molar mass.

For the test, the system named is S. aureus. As to the kind of experiment: Antimicrobial activity MIC, microdilution whole cell assay, S. aureus. As to conditions: Staphylococcus aureus; standard whole cell assay; read-out: MIC against S. aureus. Type of test: cell-based. The procedure:
Assay Protocol for Antimicrobial Activity. Minimum inhibitory concentrations (MICs) were determined using the microdilution method in 96-well format plates. Compounds were suspended in DMSO at 5 or 10 mg/ml and stored at 4° C. until used. They were diluted in Mueller-Hinton Broth (MHB) or Trypticase Soy Broth (TSB) and used for MIC determination. The range of concentrations tested was 64-0.0625 μg/ml final concentration using a two-fold dilution system.
The inoculum was prepared from cells grown on Trypticase Soy Agar (TSA) and incubated overnight at 35° C., 5 to 10 colonies were used to inoculate MHB or TSB broths, and the culture was incubated overnight at 35° C. The overnight culture was diluted 1:10, incubated for one hour at 35° C., diluted to the appropriate inoculum size and applied to the wells containing broth and test compound. Inoculum sizes were 1×10^5 to 5×10^5 CFU/ml. Strains used included P. aeruginosa VPAE1001, E. faecium V VEFA1001, E. faecium VanA VEFA1002, S. aureus VSAU1003, S. aureus MRSA VSAU1004, E. coli VEC05, and E. coli (arc-) VEC05.
Plates were incubated at 35° C. for 48 hours and MIC were recorded after 18 hours of incubation, for bacteria, and 48 for yeasts.
A general note: In broth dilution the organism is exposed to a series of concentrations in liquid medium.

As for `CON=Cc1ccc(/C=C/C(=O)NC[C@H]2CN(c3ccc(C(N)=O)c(F)c3)C(=O)O2)cc1`, the MIC was approximately 0.5 µg/mL (≈ 1.14 µM).
